Measurements published in patent publication US20190247396A1, “DENTAL TREATMENT” (KING'S COLLEGE LONDON, priority 2016, published 2019).
“Also recorded” adds a separate entry of the source.

Tests used:
[1] = system: Axin2 (Wnt activity) in dental pulp cells; assay: Induction of Axin2 in vivo, pulp exposure injury model, qPCR of pulp cells; design: species or system mouse; conditions: one day after injury and capping; vs control, MTA or collagen sponge
Procedure: A glass ionomer cement was used to cover the sponge and protect the tooth (FIG. 2G). Specifically, a layer of 3M Ketac-Cem Radiopaque was used as a capping material to seal the injured site. The injury was performed on the two upper first molars. Post-op the mice were given Vetergesic (Buprenorphine—Ceva) at the rate of 0.3 mg/kg intraperitonially as analgesic. The animals were sacrificed after 1 day.
Treated teeth were removed after 24 h along with controls consisting of untreated teeth, MTA only and collagen sponge with no inhibitor.
Molars were extracted using a 21G needle as an elevator to lift them from the alveolar bone and kept in ice cold PBS. Using a 23 scalpel blade the molars were separated at the crown-root junction, so that the pulp chamber could be visualized. Using a 0.6 mm straight tip tweezer the pulp was gently scraped from the pulp chamber and the root canal. The pulp was then placed into cold Sigma RNAlater and stored at −80° C.
The extracted cells were tested for expression of Axin2 by qPCR as described in Example 1 (FIG. 1E). Expression of Axin2 was 3× higher in inhibitor treated pulp cells when compared to controls (FIG. 1E).

[2] = system: Axin2 (Wnt activity) in dental pulp; assay: Axin2 qPCR of dental pulp one day after dentine injury without pulp exposure; format: in vivo, mouse
Procedure: All drugs were dissolved and diluted in DMSO.
(§1) Since Wnt/β-catenin signaling is required for reparative dentine formation we investigated if this pathway plays a role in reactionary dentine formation. The small molecule GSK3 antagonist Tideglusib was delivered on collagen sponges at the site of damage and sealed with glass ionomer. Sponge alone and MTA sealed with glass ionomer were used as controls. To identify whether cells responded to the drug, TCF/Lef:H2B-GFP, Axin2^−CreERT2; Rosa26−mTmG flox/+ and CD1 wild type mice were used. TCF/Lef:H2B-GFP reporter mice allowed the visualisation of Wnt active cells (ie. Cells receiving a Wnt signal), Axin2^−CreERT2; Rosa26−mTmG flox/+ mice were used to lineage trace Axin2-expressing cells and gene expression analysis via qPCR (as described in Example 1) was performed on pulp cells from CD1 mouse molars. The first molars of genetically modified mice were collected 1 day after the injury and immunohistochemistry was performed. Deparaffinised sections were retrieved with sodium citrate (pH 6) and incubated with chicken polyclonal anti-GFP antibody (1:500; Abcam, Cambridge, Mass., USA; ab13970) overnight at 4° C. Sections were washed and exposed to appropriate biotinylated secondary antibody, then horseradish peroxidase (HRP)-conjugated streptavidin-biotin antibody and washed with PBST. […]

[3] = system: mouse maxillary first molars; assay: Reparative dentine formation after pulp exposure, micro-CT mineral analysis; format: in vivo
Procedure: T filled with mineral=0.0017 mg.

[4] = system: mouse maxillary first molars; assay: Reactionary dentine formation, non-exposed pulp injury model, Masson's Trichrome histology; conditions: for Structure of reactionary dentine (histology): 4 weeks after injury without pulp exposure
Procedure: (§2) To investigate the effect of modulation of Wnt signaling on reactionary dentine formation, a reproducible tooth damage model was established. 6 weeks old, Axin2^−CreERT2; Rosa26−mTmG (fl/+) and GPR1777(Wntless)^−pCAGCreERT2 (fl/fl) mice were injected intraperitoneally with three doses of tamoxifen (2 mg per 30 g mouse, SIGMA), one dose a day. 5 days after the last tamoxifen injection, the height of the middle cusp of mouse maxillary first molars were reduced without exposing the dental pulp, leaving a band of dentine to protect the inner pulp tissue (FIG. 5).
The exposed dentine was capped either with calcium hydroxide (Dycal; Dentsply) or mineral trioxide aggregate (MTA) (ProRoot MTA; Dentsply), or dry collagen sponge (Kolspon-Fish Collage Type 1; Eucare Ltd), or collagen sponge soaked in dimethyl sulfoxide (DMSO; SIGMA), or 50 nM Tideglusib, or 1 μM LY2157299, or 1 μM Dorsomorphin. All drugs were dissolved and diluted in DMSO. A layer of glass ionomer cement (Ketac-Cem Radiopaque; 3M ESPE) was used as a sealing material. Vetergesic (Buprenorphine—Ceva) was injected to all mice post-operative at the rate of 0.3 mg/kg by intraperitoneal injection as analgesic. The animals were sacrificed after 1 day and 4 weeks. A total of 14 genetically-modified mice (28 damaged molars) and 26 CD1 mice (52 molars) were used.
After 4 weeks decalcification in 19% EDTA pH 6, the teeth were embedded in wax blocks and sectioned at 8 μm thickness. Sections were histologically stained using Masson's Trichrome.
Sequestered latent BMP and TGF-β proteins present in the dentine matrix have been implicated in tertiary dentine formation following damage, mainly based on results obtained from in vitro experiments. The effect of inhibition of these signalling pathways in was investigated in the in vivo model of reactionary dentine formation described in Example 5 by utilising small molecules to inhibit these signalling pathways. The small molecule LY2157299 is a TGF-β type I receptor kinase inhibitor and the small molecule Dorsomorphin is an inhibitor of BMP type I receptors ALK2, ALK3 and ALK6 (Bhola et al. 2013, Yu et al. 2008). Both compounds were first tested for cytotoxicity and effectiveness of signalling pathway blocking in vitro using 17IA4 cells. The first upper molars of CD1 mice were damaged to stimulate reactionary dentine formation and a collagen sponge was soaked in either 1 μM LY2157299 or 1 μM Dorsomorphin was used as a delivery vehicle. The sponges were placed on the exposed dentine and sealed with a layer of glass ionomer.

[5] = system: mouse maxillary first molars; assay: Reparative dentine formation after pulp exposure, Masson's Trichrome histology
Procedure: (§3) To test the induction of Axin2 in vivo, an injury model was developed. Mice were anaesthetized with a solution of Hypnorm (Fentanyl/fluanisone—VetaPharma Ltd.), water and Hypnovel (Midazolam—Roche) in the ratio 1:2:1 at 10 ml/kg by an intraperitoneal injection. Experimental tooth damage was created by drilling and making 0.13 mm holes in mouse maxillary first molars to expose the pulp. A rounded carbide bur FG ¼ coupled to a high speed hand piece was used to access the dentine. Once the bur cut exposed the dentine, a 30G needle was used to penetrate the pulp.
(§4) In order to protect the pulp from external contamination and stimulate dentine repair, the injury was capped either with ProRoot Mineral Trioxide Aggregate (MTA) (Maillfer Dentsply), or Kolspon (Fish Collage Type 1—Eucare Ltd) alone, or in association with 50 nM BIO (SIGMA), 5 μM CHIR99021 (SIGMA), or 50 nM Tideglusib (SIGMA) dissolved and diluted in DMSO, in contact with the pulp. Pieces of Kolspon were cut to size and soaked in solutions of the three inhibitors before being physically placed into the holes, in contact with the pulp.
(§5) The model described in Example 2 was then used to examine the effect on the formation of reparative dentine. Molars were drilled and sponges inserted and left as described in Example 2, this time for 4-6 weeks before the mice were sacrificed.
(§6) After 4 weeks decalcification in 19% EDTA the teeth were embedded in wax blocks and sectioned using 0.8 μm thickness. Sections were stained using Masson's Trichrome to reveal new dentine formation.

[6] = system: mouse maxillary first molars; assay: Reactionary dentine formation, non-exposed pulp injury model, micro-CT mineral content and linear measurement; format: in vivo; conditions: 50 nM, 4 weeks
Procedure: as §2
The exposed dentine was capped either with calcium hydroxide (Dycal; Dentsply) or mineral trioxide aggregate (MTA) (ProRoot MTA; Dentsply), or dry collagen sponge (Kolspon-Fish Collage Type 1; Eucare Ltd), or collagen sponge soaked in dimethyl sulfoxide (DMSO; SIGMA), or 50 nM Tideglusib, or 1 μM LY2157299, or 1 μM Dorsomorphin. All drugs were dissolved and diluted in DMSO. […]
Mice upper molars were dissected, fixed in 4% paraformaldehyde (PFA) for 24-hours at 4° C. and scanned using a Bruker Skyscan1272 micro-CT (pCT) scanner. […] The dentine thickness was measured using the “Line” function of the software. For the dentine thickness-analysis the distance between the center of the roof of the middle pulp horn and the floor of the injured dentine margin was measured. […] The region measured comprised only the site of injury. […]

[7] = system: mouse maxillary first molars; conditions: in vivo
Procedure: as §3, §4, §5, §6

[8] = system: TCF/Lef:H2B-GFP and Axin2-CreERT2 Wnt responsive cells; assay: GFP immunohistochemistry of Wnt responsive cells in reporter mice 1 day after injury; format: in vivo, mouse
Source text: as §1, with “PBST. Immunoreactivity was visualized with MenaPath green chromogen kit (Bio SB).” for “PBST.”

[9] = system: Axin2 (Wnt activity) in 171A4 mouse dental pulp cells; assay: In vitro drug release from Kolspon sponge, Axin2 qPCR; format: cell-based; conditions: for Wnt activity (Axin2 qPCR): drug in collagen sponge incubated with cells, 50 nM BIO, 50 nM Tideglusib, vs media or sponge without drug
Procedure: In vitro drug release from Kolspon sponge was tested. 171A4 cells were plated in 24-well plates and incubated (37° C., 5% CO2/95% air, 100% humidity) for 24 h using standard culture medium. Falcon™ cell culture inserts for use with 24-well plates ([…]) were placed in the wells carrying 96 mm^2 Kolspon cubes either dry or soaked in 30 μl of the drug optimal concentration for 15 and 30 minutes, 1, 6, and 12 hours. The cells were collected with TRIzol and stored at −20° C.
RNA was extracted from the cells using TRIzol (Thermo Fisher Scientific) as recommended by the manufacturer. RNA was quantified using Nanodrop and reverse transcribed into cDNA. Beta-actin was used as housekeeping gene (Forward-[…] (SEQ ID NO 1), Reverse-[…]) (SEQ ID NO 2) and Axin2 for Wnt activity (Forward-[…] (SEQ ID NO 3), Reverse- TGCCCACACTAGGCTGACA (SEQ ID NO 4).

[10] = system: human deciduous tooth dental pulp cells; conditions: cited from earlier work

| SMILES | Wnt activity / Axin2 expression (qPCR) in dental pulp cells [1] | Wnt activity / early-response Axin2 expression (qPCR) ([2]; 1 day after injury without pulp exposure) | Axin2 expression compared to controls ([2]; 1 day after injury, FIG. 8E) [fold] | MicroCT appearance of injury site ([3]; 4 weeks) | MicroCT appearance of injury site ([3]; 6 weeks) | Amount of reactionary dentine formation (histology) compared with controls ([4]; 50 nM in collagen sponge, 4 weeks) | Structure of reactionary dentine (histology) [4] | Pulp / tooth vitality ([4]; mouse, in vivo) | Histology of reparative dentine formation ([5]; 4 weeks) | Histology of reparative dentine formation ([5]; 6 weeks) | Mineral band thickness at the site of injury (linear measurement) vs collagen sponge alone ([6]; FIG. 9E) | Mineral content under the injury site (micro-CT) ([6]; vs collagen sponge alone, FIG. 9D) | Pulp vitality [7] | Axin2+ (GFP-positive) cells in the dental pulp ([8]; Axin2-CreERT2, Rosa26-mTmG mice, vs collagen sponge only) | Wnt responsive (TCF/LEF+, GFP) cells under the injury ([8]; TCF/Lef:H2B-GFP reporter mice, vs collagen sponge alone) | Wnt activity (Axin2 qPCR) [9] | Differentiation state of dental pulp cells [10] | Proliferation of dental pulp cells [10] | BIO induction of Axin2 expression relative to CHIR99021 and Tideglusib ([9]; FIG. 1D) [×] |
| --- | --- | --- | --- | --- | --- | --- | --- | --- | --- | --- | --- | --- | --- | --- | --- | --- | --- | --- | --- |
| O=c1sn(-c2cccc3ccccc23)c(=O)n1Cc1ccccc1 [Tideglusib, 4-Benzyl-2—(naphthalen-1-yl)-[1,2,4]thiadiazolidine-3,5-dione] | significant upregulation of Wnt activity | significant upregulation of Wnt activity | 2 | mature mineral at the injury site | mature reparative dentine formed at the injury site almost at the same Radiopacity as the primary/secondary dentine | larger reactionary dentine secretion; also recorded: enhanced reactionary dentine formation | normal tubular reactionary dentine formation | dental pulp remained vital | dense dentine formation at the injury site with vital pulp | filled the whole injury site from occlusal to pulp chamber roof; also recorded: complete repair with vital dental pulp | thicker mineral band | high mineral content; also recorded: increase of mature mineral formation | dental pulp remained vital | increase of TCF/LEF+cells and Axin2+ cells; also recorded: more GFP-positive cells | increase of TCF/LEF+cells; also recorded: increased local response to Wnt signalling | Wnt activity increases after 30 minutes of incubation and remains elevated | – | – | – |
| Cc1cccc(-c2nn3c(c2-c2ccnc4ccc(C(N)=O)cc24)CCC3)n1 [LY2157299] | – | – | – | – | – | – | disorganised (globular) dentine; also recorded: atypical globular dentine without tubular reactionary dentine features | – | – | – | – | – | – | – | – | – | – | – | – |
| O=C1Nc2cc(Br)ccc2/C1=C1/Nc2ccccc2/C1=N\O [BIO, 6-bromoindirubin-3′-oxime] | significant upregulation of Wnt activity | – | – | mature mineral at the injury site | injury site filled with mature dentine | – | – | – | dense dentine formation at the injury site with vital pulp | filled the whole injury site from occlusal to pulp chamber roof; also recorded: new mature dentine formed where the sponge was placed filling the injury site | – | – | dental pulp remained vital | – | – | Wnt activity increases after 30 minutes of incubation and remains elevated | maintain human deciduous tooth dental pulp cells in the undifferentiated state | reduce proliferation | 4 |
